This is an account of results in ChEMBL document CHEMBL1201862, “PubChem BioAssay data set” (2004).

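Growth conditions: 96-well plates. Treatment: test compound, 48 hours, 5 concentrations. Analysis: linear interpolation between bracketing concentrations; unreached endpoints set to highest concentration. Abbreviation: GI50, concentration required for 50% inhibition of growth.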 Activity calls are given as the source filed them. Rule as the data show it: active = GI50 up to about 1.1 µM and inactive = higher. Bounds are passed on as bounds.

Test systems include HCC 2998; MOLT-4; NCI-H460; PC-3; COLO 205; T47D; HOP-62; HT-29; MDA-MB-231; A549; CAKI-1; HOP-92; NCI/ADR-RES; DMS-273; SW-620; SN12C; NCI-H226; ACHN; SF-539; DMS-114.
Common to all, as to assay: DTP human tumour cell line panel, 48 h

Regarding `N/C(S)=N/N=C/c1ncccc1O`, the GI50 in the assay on HCC 2998 is 9.08 µM (inactive); in the assay on MOLT-4, 0.787 µM (active); in the assay with NCI-H460 it was 1.29 µM (inactive); in the assay on PC-3, 2.97 µM (inactive); with COLO 205, 2.83 µM (inactive); in the assay on T47D it was 3.14 µM (inactive). The GI50 in the assay on HOP-62 was 1.23 µM (inactive); with HT-29, 3.56 µM (inactive); with MDA-MB-231, 4.29 µM (inactive); in the assay on A549 it was 2.32 µM (inactive); in the assay on CAKI-1, 0.927 µM (active); with HOP-92, 0.52 µM (active). Also, the GI50 with NCI/ADR-RES is 0.757 µM (active); with DMS-273, 0.508 µM (active); with SW-620, 1.64 µM (inactive); in the assay on SN12C, 0.964 µM (active); in the assay with NCI-H226 it was 2.95 µM (inactive); in the assay on ACHN, 0.766 µM (active).

Regarding `CC[n+]1c(/C=C/c2ccc(N(CCCl)CCCl)cc2)ccc2cc(NC(=O)/C=C/c3ccccc3)ccc21`, the GI50 with HCC 2998 is 0.39 µM (active); in the assay with MOLT-4, 0.286 µM (active); in the assay with NCI-H460, 0.245 µM (active); with PC-3, 0.402 µM (active); in the assay on SF-539, 0.308 µM (active); with COLO 205, 0.104 µM (active). The concentration for 50% growth inhibition (GI50) is 0.249 µM (active) in the assay with T47D; 0.52 µM (active) with DMS-114; 0.318 µM (active) in the assay with HOP-62; 0.344 µM (active) in the assay on HT-29; 0.32 µM (active) in the assay with MDA-MB-231; 0.279 µM (active) in the assay on A549. In addition, the GI50 in the assay on CAKI-1 was 2.13 µM (inactive); in the assay with HOP-92, 0.251 µM (active); in the assay with NCI/ADR-RES, 30.9 µM (inactive); with SW-620, 0.208 µM (active); in the assay with SN12C, 0.261 µM (active); with NCI-H226 it was 0.456 µM (active). In addition, the GI50 in the assay with ACHN is 0.807 µM (active).

As to `COC(=O)C(C(=O)C(=O)Nc1ccc([N+](=O)[O-])cc1)c1nc2cc(C)c(C)cc2nc1O` (configuration not stated), the GI50 in the assay on HCC 2998 is 81.3 µM (inactive); in the assay with MOLT-4, > 100 µM (inactive); in the assay with NCI-H460 it was > 100 µM (inactive); in the assay with SF-539 it was > 100 µM (inactive); in the assay on COLO 205, > 100 µM (inactive); in the assay with DMS-114, > 100 µM (inactive). The GI50 in the assay with HOP-62, in the assay on HT-29, in the assay with A549, with CAKI-1, with HOP-92 and in the assay on SW-620 was > 100 µM (inactive) in each case. The GI50 with SN12C, with NCI-H226 and in the assay with ACHN was > 100 µM (inactive) each time.

With `CN(C)/C=N/C1CCC(C(C)(C)C)CC1` (configuration not stated), the GI50 in the assay with HCC 2998 is 14.8 µM (inactive); in the assay with MOLT-4, 12.9 µM (inactive); in the assay on NCI-H460, 16.7 µM (inactive); in the assay with PC-3 it was 15.1 µM (inactive); with SF-539 it was 17.5 µM (inactive); in the assay with COLO 205 it was 17.3 µM (inactive). Also, the GI50 in the assay on T47D was 16.4 µM (inactive); in the assay on HOP-62, 17.2 µM (inactive); in the assay on HT-29 it was 8.69 µM (inactive); in the assay with MDA-MB-231, 13.6 µM (inactive); with A549, 18.7 µM (inactive); in the assay with CAKI-1 it was 18.9 µM (inactive). The GI50 with HOP-92 was 15.5 µM (inactive); with NCI/ADR-RES it was 17.7 µM (inactive); in the assay on SW-620, 16.9 µM (inactive); in the assay on SN12C, 17.7 µM (inactive); with NCI-H226 it was 19.3 µM (inactive); with ACHN, 21.2 µM (inactive).

In the case of `CCOC(=O)c1sc2[n+](c1C)C(=O)/C(=C/c1ccccc1Cl)S2`, the GI50 with HCC 2998 was 1.7 µM (inactive); with MOLT-4, 3.33 µM (inactive); in the assay on NCI-H460, 0.65 µM (active); in the assay with PC-3, 0.989 µM (active); in the assay with SF-539 it was 0.472 µM (active); in the assay on COLO 205, 3.13 µM (inactive). The GI50 with T47D is 15.3 µM (inactive); in the assay with HOP-62 it was 1.61 µM (inactive); in the assay with HT-29, 3.44 µM (inactive); with MDA-MB-231, 3.06 µM (inactive); in the assay on A549, 0.9 µM (active); in the assay with CAKI-1, 0.453 µM (active). Further, the GI50 in the assay with HOP-92 is 5.9 µM (inactive); in the assay on NCI/ADR-RES, 0.342 µM (active); with SW-620 it was 0.883 µM (active); in the assay on SN12C, 14.3 µM (inactive); in the assay on NCI-H226, 0.953 µM (active); in the assay on ACHN, 1.53 µM (inactive).

With `O=C(/C=C(\O)C(=O)O)/C=C(\O)c1ccccc1`, the GI50 is > 100 µM (inactive) in the assay with MOLT-4; > 4.65 µM (inactive) in the assay on NCI-H460; > 4.65 µM (inactive) with COLO 205; > 4.65 µM (inactive) with HOP-62; > 4.65 µM (inactive) with HT-29; > 4.65 µM (inactive) with A549. The GI50 in the assay with CAKI-1, in the assay with DMS-273, with SW-620, with SN12C, with NCI-H226 and in the assay with ACHN was > 4.65 µM (inactive) each time.

For `CC1(C)OCC2OC(n3cnc4c(N)nc(Cl)nc43)C(OS(C)(=O)=O)C2O1` (configuration not stated), the GI50 with HCC 2998 is > 100 µM (inactive); in the assay on MOLT-4, 48.2 µM (inactive); with NCI-H460, > 100 µM (inactive); in the assay on PC-3, > 100 µM (inactive); with SF-539, > 100 µM (inactive); in the assay with COLO 205, > 100 µM (inactive). Besides, the GI50 in the assay with T47D, in the assay on HOP-62, in the assay with HT-29, in the assay with MDA-MB-231, in the assay on A549 and in the assay on CAKI-1 was > 100 µM (inactive) each time. Besides, the GI50 is 45.3 µM (inactive) with HOP-92; > 100 µM (inactive) with NCI/ADR-RES; > 100 µM (inactive) in the assay on SW-620; > 100 µM (inactive) in the assay on SN12C; > 100 µM (inactive) in the assay on NCI-H226; > 100 µM (inactive) in the assay on ACHN.

For `COC(=O)CCC(NC(=O)OC(C)(C)C)C(=O)NC(Cc1ccc(NC(=O)CCCC(C)=O)cc1)C(=O)NC(CCC(=O)OC)C(=O)OC` (configuration not stated), the GI50 in the assay on HCC 2998, in the assay on MOLT-4, in the assay on NCI-H460, in the assay on PC-3, in the assay on SF-539 and in the assay on COLO 205 was > 100 µM (inactive) each time. In addition, the GI50 in the assay on T47D, in the assay with HOP-62, in the assay with HT-29, with MDA-MB-231, with A549 and with CAKI-1 was > 100 µM (inactive) each time. Besides, the GI50 with HOP-92, with NCI/ADR-RES, with SW-620, in the assay with SN12C, with NCI-H226 and in the assay on ACHN was > 100 µM (inactive) each time.

`COC(=O)CCC(=O)C(C#N)c1ccc(Cl)cc1Cl` (configuration not stated): the GI50 was > 100 µM (inactive) in the assay on MOLT-4; > 100 µM (inactive) in the assay with SF-539; 4.97 µM (inactive) with HT-29; > 100 µM (inactive) in the assay on A549; > 100 µM (inactive) with CAKI-1; > 100 µM (inactive) in the assay with HOP-92. Further, the GI50 in the assay on DMS-273, with SW-620, in the assay on SN12C, in the assay with NCI-H226 and in the assay on ACHN was > 100 µM (inactive) each time.

For `CC1(C)[C@@H]2C[C@H]1[C@@H](Cc1cccc(C[C@H]3c4cc(-c5ccccn5)ncc4[C@H]4C[C@@H]3C4(C)C)c1)c1cc(-c3ccccn3)ncc12`, the GI50 in the assay on HCC 2998 was 12.4 µM (inactive); in the assay on MOLT-4 it was 1.41 µM (inactive); in the assay with NCI-H460, 0.889 µM (active); in the assay with PC-3, 12.6 µM (inactive); in the assay on SF-539 it was 4 µM (inactive); with COLO 205 it was 2.93 µM (inactive). Further, the GI50 with T47D was 2.44 µM (inactive); with HOP-62, 17.5 µM (inactive); in the assay with HT-29, 3.17 µM (inactive); in the assay on MDA-MB-231, > 31.8 µM (inactive); in the assay with A549, 2.76 µM (inactive); in the assay on CAKI-1, 1.75 µM (inactive). Also, the GI50 in the assay with HOP-92 was 9.04 µM (inactive); in the assay with NCI/ADR-RES it was 3.78 µM (inactive); in the assay on SW-620 it was 8.45 µM (inactive); in the assay with SN12C it was 5.68 µM (inactive); in the assay with NCI-H226, 2.83 µM (inactive); in the assay on ACHN, 1.37 µM (inactive).

On to `CCOC(=O)C1=C(C#N)S(=O)(=O)c2c(oc(C)c2C)N1`, for which the GI50 in the assay on HCC 2998, with MOLT-4, in the assay with NCI-H460, in the assay on PC-3, with SF-539 and with COLO 205 was > 100 µM (inactive) throughout. In addition, the GI50 in the assay with T47D, in the assay with HOP-62, in the assay on HT-29, in the assay with MDA-MB-231, with A549 and in the assay with CAKI-1 was > 100 µM (inactive) in each case. Besides, the GI50 in the assay with HOP-92, in the assay on NCI/ADR-RES, with SW-620, in the assay on SN12C, with NCI-H226 and with ACHN was > 100 µM (inactive) throughout.

Turning to `CN(C)/C=N\c1nc(=O)n(C2CCC(CO)O2)cc1F` (configuration not stated), the GI50 with HCC 2998 is 96.6 µM (inactive); in the assay with MOLT-4, > 100 µM (inactive); in the assay with NCI-H460, > 100 µM (inactive); in the assay with COLO 205, > 100 µM (inactive); in the assay on HOP-62 it was > 100 µM (inactive); in the assay with HT-29, > 100 µM (inactive). Further, the GI50 with A549, in the assay on CAKI-1, with HOP-92, in the assay on DMS-273, with SW-620 and with SN12C was > 100 µM (inactive) each time. Besides, the GI50 in the assay with NCI-H226 and in the assay on ACHN was > 100 µM (inactive) in each case.

What is called GI50 is the concentration giving 50% growth inhibition.
